Laboratory results as given in the supplement of paper PMC10307832.

Experiments:
Assay in all cases: relative viability (nuclei count vs DMSO), 5 days (fraction); higher = more cells survive
Dinaciclib + Alpelisib = compound: CCc1cnn2c(NCc3ccc[n+]([O-])c3)cc(N3CCCC[C@H]3CCO)nc12 [Dinaciclib] + Cc1nc(NC(=O)N2CCC[C@H]2C(N)=O)sc1-c1ccnc(C(C)(C)C(F)(F)F)c1 [Alpelisib] (partner 2 µM)
Method in brief: (§1)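 One day after seeding in 1536-well plates, lung cancer cell lines were dosed by pin tool. Dosing was either single-drug or a fixed anchor-drug dose plus five library-drug doses (not always all listed) in √10 steps. After 5 days, nuclei were stained in one fix-and-stain step and counted on 4× images, and relative viability is the nuclei count of treated wells over that of vehicle wells, given as the median of duplicate plates.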

Dinaciclib + Pemetrexed = compound: CCc1cnn2c(NCc3ccc[n+]([O-])c3)cc(N3CCCC[C@H]3CCO)nc12 [Dinaciclib] + Nc1nc2[nH]cc(CCc3ccc(C(=O)N[C@@H](CCC(=O)O)C(=O)O)cc3)c2c(=O)[nH]1 [Pemetrexed] (partner 0.2 µM)
Method in brief: as §1

Dinaciclib + Decitabine = compound: CCc1cnn2c(NCc3ccc[n+]([O-])c3)cc(N3CCCC[C@H]3CCO)nc12 [Dinaciclib] + Nc1ncn([C@H]2C[C@H](O)[C@@H](CO)O2)c(=O)n1 [Decitabine] (partner 2 µM)
Method in brief: as §1

Dinaciclib + Vorinostat = compound: CCc1cnn2c(NCc3ccc[n+]([O-])c3)cc(N3CCCC[C@H]3CCO)nc12 [Dinaciclib] + O=C(CCCCCCC(=O)Nc1ccccc1)NO [Vorinostat] (partner 1 µM)
Method in brief: as §1

Dinaciclib + Olaparib = compound: CCc1cnn2c(NCc3ccc[n+]([O-])c3)cc(N3CCCC[C@H]3CCO)nc12 [Dinaciclib] + O=C(c1cc(Cc2n[nH]c(=O)c3ccccc23)ccc1F)N1CCN(C(=O)C2CC2)CC1 [Olaparib] (partner 8 µM)
Method in brief: as §1

Cell Line	relative viability (Dinaciclib + Alpelisib; first compound 0.009487 µM)	relative viability (Dinaciclib + Alpelisib; first compound 0.03 µM)	relative viability (Dinaciclib + Alpelisib; first compound 0.09487 µM)	relative viability (Dinaciclib + Alpelisib; first compound 0.3 µM)	relative viability (Dinaciclib + Pemetrexed; first compound 0.009487 µM)	relative viability (Dinaciclib + Pemetrexed; first compound 0.03 µM)	relative viability (Dinaciclib + Pemetrexed; first compound 0.09487 µM)	relative viability (Dinaciclib + Pemetrexed; first compound 0.3 µM)	relative viability (Dinaciclib + Decitabine; first compound 0.009487 µM)	relative viability (Dinaciclib + Decitabine; first compound 0.03 µM)	relative viability (Dinaciclib + Decitabine; first compound 0.09487 µM)	relative viability (Dinaciclib + Decitabine; first compound 0.3 µM)	relative viability (Dinaciclib + Vorinostat; first compound 0.009487 µM)	relative viability (Dinaciclib + Vorinostat; first compound 0.03 µM)	relative viability (Dinaciclib + Vorinostat; first compound 0.09487 µM)	relative viability (Dinaciclib + Vorinostat; first compound 0.3 µM)	relative viability (Dinaciclib + Olaparib; first compound 0.009487 µM)	relative viability (Dinaciclib + Olaparib; first compound 0.03 µM)	relative viability (Dinaciclib + Olaparib; first compound 0.09487 µM)	relative viability (Dinaciclib + Olaparib; first compound 0.3 µM)
NCI-H838	0.916	0.149	0.11	0.123	0.262	0.13	0.12	0.0879	0.337	0.162	0.131	0.138	0.496	0.146	0.145	0.15	0.431	0.101	0.0853	0.0924
EMC-BAC-2	0.765	0.227	0.113	0.112	0.451	0.381	0.288	0.259	0.991	0.26	0.22	0.24	0.36	0.166	0.152	0.143	0.485	0.238	0.187	0.176
LU99A	0.37	0.133	0.116	0.0993	0.205	0.16	0.132	0.137	0.793	0.145	0.13	0.149	0.332	0.119	0.0932	0.109	0.199	0.112	0.117	0.125
PC-3 [JPC-3]	0.99	0.899	0.362	0.21	1.12	0.53	0.289	0.285	0.794	0.671	0.34	0.302	0.915	0.56	0.277	0.323	1.09	0.57	0.321	0.288
NCI-H596	0.517	0.426	0.105	0.154	0.404	0.396	0.24	0.225	1.48	0.839	0.271	0.258	0.629	0.613	0.252	0.158	0.699	0.522	0.222	0.202
LCLC-97TM1	0.197	0.129	0.121	0.107	0.152	0.0671	0.0619	0.062	0.167	0.0798	0.0518	0.0627	0.56	0.0645	0.0617	0.0592	0.322	0.0664	0.0584	0.0621
NCI-H1993	0.671	0.683		0.642	0.592	0.452	0.484	0.427	0.702	0.462	0.445	0.406	0.651	0.281	0.42	0.308	1.12	0.755	0.371	0.424
HARA	0.72	0.0726	0.0663	0.0442	0.24	0.172	0.122	0.0976	0.437	0.205	0.135	0.101	0.527	0.331	0.0816	0.0937	0.366	0.0835	0.0659	0.14
NCI-H460	0.383	0.0074	0.0122	0.0084	0.0617	0.0567	0.0208	0.017	0.232	0.0239	0.0139	0.0224	0.57	0.0214	0.0191	0.0236	0.409	0.0325	0.0396	0.0408
EKVX	0.862	0.449	0.11	0.122	0.35	0.267	0.122	0.123	0.388	0.196	0.136	0.123	0.612	0.472	0.167	0.226	0.721	0.346	0.123	0.139
NCI-H1755	0.852	0.241	0.158	0.169	0.397	0.272	0.204	0.261	0.754	0.733	0.261	0.239	0.739	0.452	0.227	0.242	0.865	0.284	0.206	0.215
NCI-H1395	0.903	0.304	0.312	0.303	0.505	0.231	0.213	0.26	0.649	0.286	0.286	0.251	0.537	0.269	0.273	0.224	0.469	0.279	0.264	0.32
NCI-H2087	0.843	0.144	0.121	0.116	0.687	0.109	0.106	0.101	0.189	0.0863	0.0711	0.0804	0.753	0.114	0.12	0.0878	0.639	0.0883	0.0953	0.112
H3255	0.716	0.352	0.15	0.141	0.633	0.423	0.227	0.213	0.642	0.237	0.157	0.147	0.705	0.51	0.211	0.205	0.536	0.253	0.2	0.19
SK-MES-1	0.757	0.618	0.119	0.117	0.799	0.192	0.179	0.168	0.362	0.157	0.156	0.166	1.23	0.156	0.161	0.148	0.333	0.16	0.139	0.139
NCI-H23	0.578	0.15	0.119	0.104	0.445	0.156	0.113	0.117	0.242	0.216	0.14	0.135	0.512	0.143	0.104	0.122	0.206	0.12	0.0827	0.101
